The text below walks through data of US11925644B2, “Crystalline salts of 5-methyl-(6S)-tetrahydrofolic acid and l-leucine ethyl ester” (MERCK PATENT GMBH, priority 2018, dated 2024).

For data set [1] the following is noted: cited from earlier work; for aqueous solubility: room temperature.
Data set [2] in a line: Water content (TG-FTIR). The data set is classed as physicochemical. Here is the method: Thermogravimetric measurements were carried out with a Netzsch Thermo-Microbalance TG 209 coupled to a Bruker FTIR Spectrometer Vector 22 (sample pans with a pinhole, N2 atmosphere, heating rate 10 K/min).
About 420 mg of the solid material obtained in Example 2 was weighed into a filter centrifuge device and 2.0 mL of water is added followed by centrifugation under ambient conditions. This wash step is repeated twice more using 0.5 mL of water. The wet filter cake is then transferred to a fritted glass filter and air dried by drawing ambient air (about 22° C./about 21% r.h.) through the glass filter for about 10 minutes.
(§1) DVS measurements were performed as follows: The sample was placed on an aluminum holder on top of a microbalance and allowed to equilibrate at 50% RH before starting the pre-defined humidity program: • (1) two hours kept at 50% constant relative humidity (RH) then • (2) reduced to 0% RH at a rate of 5% per hour • (3) maintained RH at 0% for five hours • (4) raised RH to 75% at a rate of 5% per hour • (5) maintained RH at 75% for five hours • (6) reduced to 0% RH at a rate of 5% per hour • (7) maintained RH at 0% for five hours • (8) raised RH to 75% at a rate of 5% per hour • (9) reduced to 50% RH at a rate of 5% per hour • (10) maintained RH at 50% for about one hour

A short description of data set [3]: Hygroscopicity by dynamic water vapor sorption analysis (DVS). It is filed as physicochemical. The conditions noted are these: 0 to 75% r.h. Here is the method:
DVS measurements are typically performed with an SPS11-100n “Sorptions Prüfsystem” from ProUmid (formerly “Projekt Messtechnik”), August-Nagel-Str. 23, 89079 Ulm (Germany).
as §1
The results are illustrated in FIG. 2.

For data set [4] the following is noted: purified/de-ionized water, room temperature, agitated one minute, gravimetric. On the procedure: (§2) 2.00 mL of purified/de-ionized water (for instance water for chromatography) was added to the solid using an adjustable volumetric pipette. The mixture was vigorously agitated at room temperature for one minute. […] The solution was filtered by centrifugal filtration and 1.50 mL of the aqueous solution was transferred into a tared glass vial (about 10 mL volume). The water was evaporated in an air dryer at 40° C. for about 15 hours, then at 50° C. for about eight hours, subsequently drying was completed at 50° C. under vacuum (10 to 20 mbar) for about 13 hours. The solubility was determined by gravimetric evaluation of the solid residue.
as §2, with “The suspension” for “The solution”

For `CN1c2c([nH]c(N)nc2=O)NC[C@@H]1CNc1ccc(C(=O)N[C@@H](CCC(=O)[O-])C(=O)[O-])cc1.[Ca+2]` [calcium salt (Form III), calcium salt of 5-methyl-(6S)-tetrahydrofolic acid], the aqueous solubility entry in data set [1] was “about 2.5 mg/ml”.
For the compound “5-methyl-(6S)-tetrahydrofolic acid calcium salt”, the water content in data set [2] (method not stated) was 12.4%. Besides, the “change of water content within tested relative humidity range” value in data set [3] is on record as “about 7.4%”. The kinetic solubility in data set [4] was 9.0 mg of 5-methyl-(6S)-tetrahydrofolic acid per mL.
Take `CCOC(=O)[C@@H](N)CC(C)C.CN1c2c([nH]c(N)nc2=O)NC[C@@H]1CNc1ccc(C(=O)N[C@@H](CCC(=O)O)C(=O)O)cc1` [5-methyl-(6S)-tetrahydrofolic acid L-leucine ethyl ester 1:1 salt]: in data set [2] (TG-FTIR analysis), the water content entry is “about 0.7%”.
Turning to `CN1c2c(nc(N)[nH]c2=O)NC[C@@H]1CNc1ccc(C(=O)N[C@@H](CCC(=O)O)C(=O)O)cc1` [5-methyl-(6S)-tetrahydrofolic acid], the “solubility in water” value in data set [1] (water) is listed as “poorly soluble in water”.
On to `CN1c2c([nH]c(N)nc2=O)NC[C@@H]1CNc1ccc(C(=O)N[C@@H](CCC(=O)[O-])C(=O)[O-])cc1.[Ca+2]` [Form I, calcium salt of 5-methyl-(6S)-tetrahydrofolic acid], for which the aqueous solubility entry in data set [1] is on record as “about 10 mg/ml”.
